{
  "source": "paper PMC2228077",
  "about": "“The bioavailability of oral GI147211 (GG211), a new topoisomerase I inhibitor” (British Journal of Cancer, 1997)",
  "key": {"[1]": {"conditions": "intravenous route; cited from earlier work"}, "[2]": {"conditions": "mouse, in vivo; cited from earlier work"}, "[3]": {"conditions": "dog, in vivo; cited from earlier work"}, "solid tumour": {"tested_on": "solid tumour", "experiment": "Tumour response (WHO criteria) in patients", "type": "in vivo, human", "conditions": "17 evaluable patients", "description": "British Journal of Cancer (1997) 76(7), 946-951 ? 1997 Cancer Research Campaign The bloavailability of oral Gil 47211 (GG21 1), a new topoisomerase I inhibitor CJH Gerrits', JHM Schellens', GJ Creemers', P Wissel2, ASTh Planting', JF Pritchard2, S DePee2, M de Boer-Dennert', M Harteveld' and J Verweij' 'Department of Medical Oncology, Rotterdam Cancer Institute (Daniel den Hoed Kliniek) and University Hospital, The Netherlands; 2Glaxo Wellcome, Department of Pharmacokinetics, NC, USA Summary Topoisomerase I inhibitors are new compounds of interest for cancer chemotherapy. We performed a study with Gl147211, a new semisynthetic camptothecin analogue, to determine the absolute bioavailability of the drug given orally. […] Gi147211 was given orally on day 1 and as a 30-min infusion daily on days 2-5. The treatment course was repeated every 3 weeks. In subsequent patient cohorts, the dose of the oral formulation was escalated from 1.5 mg m-2 to 6.0 mg m-2; the dose for i.v. administration was fixed at 1.2 mg m-2. Plasma pharmacokinetics was performed on day 1 and 2 of the first course and on day 1 of the second course using a validated high-performance liquid chromatographic assay. […]"}, "[4]": {"experiment": "Toxicity assessment (CTC criteria) in patients, oral day 1 + i.v. days 2-5 every 3 weeks", "type": "in vivo, human", "conditions": "for Abdominal discomfort, drug-related toxicity per course / Diarrhoea, drug-related toxicity per course / Nausea, drug-related toxicity per course / Stomatitis, drug-related toxicity per course: CTC grade 1; for Abdominal discomfort, drug-related toxicity per course / Diarrhoea, drug-related toxicity per course / Nausea, drug-related toxicity per course / Stomatitis, drug-related toxicity per course / Fatigue, drug-related toxicity per course / Vomiting, drug-related toxicity per course: Table 2", "description": "British Journal of Cancer (1997) 76(7), 946-951 ? 1997 Cancer Research Campaign The bloavailability of oral Gil 47211 (GG21 1), a new topoisomerase I inhibitor CJH Gerrits', JHM Schellens', GJ Creemers', P Wissel2, ASTh Planting', JF Pritchard2, S DePee2, M de Boer-Dennert', M Harteveld' and J Verweij' 'Department of Medical Oncology, Rotterdam Cancer Institute (Daniel den Hoed Kliniek) and University Hospital, The Netherlands; 2Glaxo Wellcome, Department of Pharmacokinetics, NC, USA Summary Topoisomerase I inhibitors are new compounds of interest for cancer chemotherapy. We performed a study with Gl147211, a new semisynthetic camptothecin analogue, to determine the absolute bioavailability of the drug given orally. […] Gi147211 was given orally on day 1 and as a 30-min infusion daily on days 2-5. The treatment course was repeated every 3 weeks. In subsequent patient cohorts, the dose of the oral formulation was escalated from 1.5 mg m-2 to 6.0 mg m-2; the dose for i.v. administration was fixed at 1.2 mg m-2. Plasma pharmacokinetics was performed on day 1 and 2 of the first course and on day 1 of the second course using a validated high-performance liquid chromatographic assay. […] Keywords: G1147211 (GG211); bioavailability; topoisomerase I inhibitor; phase I study G1147211 [7-(methylpiperazinomethylene)-10,11-ethylenedioxy- 20(S)-camptothecin dihydrochloride] is a water-soluble semisyn- thetic analogue of camptothecin (CPT). […] Its further development was stopped because of unpredictable and severe myelosuppression, gastro- intestinal toxicity and haemorrhagic cystitis (Gottlieb et al, 1970; Creaven et al, 1972; Muggia et al, 1972). Interest in CPT was renewed in the 1980s, because topoiso- merase I was identified as the single cellular target of CPT (Hsiang et al, 1988 1989), and an overexpression of topoisomerase I was found in various tumour cell lines but not in normal tissues (Giovanella et al, 1989; Hirabayashi et al, 1992). Topoisomerase I is a nuclear enzyme that resolves topological problems of the torsionally strained (supercoiled) DNA by forming a covalent adduct between topoisomerase I and the DNA, termed the cleav- able complex. This catalytic intermediate creates single-strand DNA breaks, allowing the DNA molecule to rotate around the intact DNA strand at the cleavage site, leading to a relaxation of Received 29 November 1996 Revised 27 March 1997 Accepted 1 April 1997 Correspondence to: CJH Gerrits, Department of Medical Oncology, Rotterdam Cancer Institute, (Daniel den Hoed Kliniek) and University Hospital, Groene Hilledijk 301, 3075 EA Rotterdam, The Netherlands the DNA molecule, and in this way replication, transcription and other DNA functions can proceed. These enzyme-bridged breaks are then resealed by topoisomerase I (Champoux, 1976; Muller, 1985; Muller et al, 1985; Camilloni et al, 1989). […] It has been documented that camptothecin (CPT) interferes with the breakage-reunion process of topoiso- merase I by stabilizing the enzyme-DNA cleavable complexes (Liu et al, 1989)."}, "[5]": {"conditions": "oral 6.0 mg m-2 level, discussion"}},
  "note": "Structures can show the parent of a compound that is named as a salt. Where two headings read alike, the source gives them in different places.",
  "data": [
    {"smiles": "CC[C@@]1(O)C(=O)OCc2c1cc1n(c2=O)Cc2c-1nc1cc3c(cc1c2CN1CCN(C)CC1)OCCO3", "note": "[GI147211, 7-(methylpiperazinomethylene)-10,11-ethylenedioxy-20(S)-camptothecin dihydrochloride]", "values": [
      {"measurement": "main toxicity in animal toxicology studies", "setting": "[1]", "value": "myelosuppression was the main toxicity and was dose limiting"},
      {"measurement": "absolute bioavailability", "setting": "[2]", "value": "2-5%"},
      {"measurement": "absolute bioavailability", "setting": "[3]", "value": 16, "unit": "%"},
      {"measurement": "best response to treatment", "setting": "solid tumour", "value": "stable disease in seven patients"},
      {"measurement": "ANC nadir", "setting": "[4]; 6.0 mg m-2 level, the one case with CTC grade IV", "value": "9e+07", "unit": "L⁻¹"},
      {"measurement": "courses in which erythrocyte transfusions were given", "setting": "[4]; CTC grade I-II anaemia occurred regularly", "value": "24 out of 47"},
      {"measurement": "platelet count, range", "setting": "[4]; CTC grade III-IV thrombocytopenia", "value": "4-40 x 109 l-1"},
      {"measurement": "courses with fatigue CTC grade II", "setting": "[4]; Table 2 footnote c", "value": "Four"},
      {"measurement": "Abdominal discomfort, drug-related toxicity per course", "setting": "[4]; Total, n = 47 courses", "value": 6, "unit": "courses"},
      {"measurement": "Diarrhoea, drug-related toxicity per course", "setting": "[4]; Total, n = 47 courses", "value": 1, "unit": "courses"},
      {"measurement": "Nausea, drug-related toxicity per course", "setting": "[4]; Total, n = 47 courses", "value": 24, "unit": "courses"},
      {"measurement": "Stomatitis, drug-related toxicity per course", "setting": "[4]; Total, n = 47 courses", "value": 2, "unit": "courses"},
      {"measurement": "Fatigue, drug-related toxicity per course", "setting": "[4]; Total, n = 47 courses", "value": 16, "unit": "courses"},
      {"measurement": "myelotoxicity", "setting": "[4]; first two dose levels (1.5 and 3.0 mg m-2 oral)", "value": "not observed"},
      {"measurement": "duration of severe granulocytopenia, range", "setting": "[4]; human, in vivo", "value": "7 to 19", "unit": "days"},
      {"measurement": "duration of severe thrombocytopenia, range", "setting": "[4]; human, in vivo", "value": "3 to 16", "unit": "days"},
      {"measurement": "median duration of severe granulocytopenia (first occurrence to recovery to CTC grade II)", "setting": "[4]; human, in vivo", "value": 7, "unit": "days"},
      {"measurement": "median duration of severe thrombocytopenia (first occurrence to recovery to CTC grade II)", "setting": "[4]; human, in vivo", "value": 8, "unit": "days"},
      {"measurement": "nausea and vomiting after oral administration compared with intravenous dosing", "setting": "[4]; human, in vivo", "value": "not different"},
      {"measurement": "neutropenic sepsis (main serious adverse event)", "setting": "[4]; human, in vivo", "value": "one"},
      {"measurement": "patients complaining of mild fatigue", "setting": "[4]; human, in vivo", "value": 34, "unit": "%"},
      {"measurement": "patients with treatment delay because of slow recovery of mild leucopenia", "setting": "[4]; human, in vivo", "value": "six"},
      {"measurement": "renal and liver toxicity", "setting": "[4]; human, in vivo", "value": "not reported"},
      {"measurement": "diarrhoea after a single oral administration", "setting": "[4]; human, in vivo, po", "value": "did not result in diar- rhoea"},
      {"measurement": "tolerability of oral administration", "setting": "[4]; human, in vivo, po", "value": "well tolerated"},
      {"measurement": "courses with mild leucopenia CTC grade I-II", "setting": "[4]; of 47 courses", "value": 17, "unit": "courses"},
      {"measurement": "mild leucopenia CTC grade I-II, share of courses", "setting": "[4]; of 47 courses", "value": 36.2, "unit": "%"},
      {"measurement": "nausea CTC grade I, share of courses", "setting": "[4]; of 47 courses", "value": 51.6, "unit": "%"},
      {"measurement": "vomiting CTC grade I, number of courses", "setting": "[4]; of 47 courses", "value": 9, "unit": "courses"},
      {"measurement": "vomiting CTC grade I, share of courses", "setting": "[4]; of 47 courses", "value": 19.1, "unit": "%"},
      {"measurement": "reversible CTC grade I peripheral neuropathy", "setting": "[4]; one patient", "value": 2.1, "unit": "%"},
      {"measurement": "day of the platelet nadir", "setting": "[4]; [5]", "value": 8, "unit": "days"},
      {"measurement": "day of the platelet nadir, range", "setting": "[4]; [5]", "value": "3 to 16", "unit": "days"},
      {"measurement": "onset of neutropenia CTC grade III-IV", "setting": "[4]; oral 6.0 mg m-2 day 1 + i.v. 1.2 mg m-2 days 2-5, discussion", "value": "7 to 19", "unit": "days"},
      {"measurement": "Abdominal discomfort, drug-related toxicity per course", "setting": "[4]; oral dose level 1.5 mg m-2", "value": 0, "unit": "courses"},
      {"measurement": "Diarrhoea, drug-related toxicity per course", "setting": "[4]; oral dose level 1.5 mg m-2", "value": 0, "unit": "courses"},
      {"measurement": "Nausea, drug-related toxicity per course", "setting": "[4]; oral dose level 1.5 mg m-2", "value": 4, "unit": "courses"},
      {"measurement": "Stomatitis, drug-related toxicity per course", "setting": "[4]; oral dose level 1.5 mg m-2", "value": 0, "unit": "courses"},
      {"measurement": "Fatigue, drug-related toxicity per course", "setting": "[4]; oral dose level 1.5 mg m-2", "value": 4, "unit": "courses"},
      {"measurement": "Vomiting, drug-related toxicity per course", "setting": "[4]; oral dose level 1.5 mg m-2", "value": 2, "unit": "courses"},
      {"measurement": "Abdominal discomfort, drug-related toxicity per course", "setting": "[4]; oral dose level 3.0 mg m-2", "value": 3, "unit": "courses"},
      {"measurement": "Diarrhoea, drug-related toxicity per course", "setting": "[4]; oral dose level 3.0 mg m-2", "value": 0, "unit": "courses"},
      {"measurement": "Nausea, drug-related toxicity per course", "setting": "[4]; oral dose level 3.0 mg m-2", "value": 4, "unit": "courses"},
      {"measurement": "Stomatitis, drug-related toxicity per course", "setting": "[4]; oral dose level 3.0 mg m-2", "value": 1, "unit": "courses"},
      {"measurement": "Fatigue, drug-related toxicity per course", "setting": "[4]; oral dose level 3.0 mg m-2", "value": 2, "unit": "courses"},
      {"measurement": "Vomiting, drug-related toxicity per course", "setting": "[4]; oral dose level 3.0 mg m-2", "value": 2, "unit": "courses"},
      {"measurement": "courses postponed for 1 week because of mild leucopenia with slow recovery", "setting": "[4]; oral dose level 6.0 mg m-2", "value": "10 out of 30"},
      {"measurement": "courses with CTC grade III-IV granulocytopenia", "setting": "[4]; oral dose level 6.0 mg m-2", "value": "5 out of 30"},
      {"measurement": "courses with CTC grade III-IV thrombocytopenia", "setting": "[4]; oral dose level 6.0 mg m-2", "value": "4 out of 30"},
      {"measurement": "Abdominal discomfort, drug-related toxicity per course", "setting": "[4]; oral dose level 6.0 mg m-2", "value": 3, "unit": "courses"},
      {"measurement": "Diarrhoea, drug-related toxicity per course", "setting": "[4]; oral dose level 6.0 mg m-2", "value": 1, "unit": "courses"},
      {"measurement": "Nausea, drug-related toxicity per course", "setting": "[4]; oral dose level 6.0 mg m-2", "value": 16, "unit": "courses"},
      {"measurement": "Stomatitis, drug-related toxicity per course", "setting": "[4]; oral dose level 6.0 mg m-2", "value": 1, "unit": "courses"},
      {"measurement": "Fatigue, drug-related toxicity per course", "setting": "[4]; oral dose level 6.0 mg m-2", "value": 10, "unit": "courses"},
      {"measurement": "Vomiting, drug-related toxicity per course", "setting": "[4]; oral dose level 6.0 mg m-2", "value": 7, "unit": "courses"},
      {"measurement": "abdominal discomfort, mostly cramping, share of courses", "setting": "[4]; six courses", "value": 13, "unit": "%"},
      {"measurement": "nadir for neutropenia", "setting": "[4]; summary", "value": 8, "unit": "days"},
      {"measurement": "nadir for thrombocytopenia", "setting": "[4]; summary", "value": 15, "unit": "days"},
      {"measurement": "alopecia grade I, share of patients", "setting": "[4]; three patients", "value": 17, "unit": "%"},
      {"measurement": "median platelet count", "setting": "[4]; three patients with CTC grade III-IV thrombocytopenia", "value": "2.5e+10", "unit": "L⁻¹"},
      {"measurement": "mild headache, share of courses", "setting": "[4]; two courses, not dose dependent", "value": 4.2, "unit": "%"},
      {"measurement": "vomiting CTC grade II, share of cycles", "setting": "[4]; two cycles", "value": 4.2, "unit": "%"}
    ]}
  ]
}
